The text below walks through data of patent US12084430B2, “Tricyclic urea compounds as JAK2 V617F inhibitors” (Incyte Corporation, priority 2022, dated 2024).

Some results are limits rather than exact numbers.

For test [1], the target named is KIT (Homo sapiens, UniProt P10721). Kind of test: KIT enzymatic assay. The class given is biochemical. The settings on record: 1 mM ATP. In a few lines: (§1)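 0.12 nM KIT with 1 mM ATP and 500 nM biotinylated TK substrate in 50 mM HEPES pH 7.0, 10 mM MgCl2, 1 mM DTT, 0.1 mM orthovanadate, 0.5% DMSO; 60 min at room temperature. TR-FRET 665/620 nm ratio; IC50 fitted from percent control activity versus log concentration.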

The test system of test [2] is KIT. Kind of test: KIT enzymatic assay. The class given is biochemical. In a few lines:
as §1

Test [3] deals with pSTAT5 signaling in SET-2 cells in whole blood. The experiment in a line: pSTAT5 SET-2 whole blood MSD assay. The class given is cell-based. Particulars: Homo sapiens, pSTAT5, 2 hour, read-out: SET2 WB IC50. The method, then:
Example F. pSTAT5 SET-2 Whole Blood MSD Assay
SET-2 cells shipped from ABS, RPMI1640 medium, Fetal Bovine Serum from Gibco, Phospho-STAT5a,b Whole Cell Lysate Kit from Mesoscale, Retronectin (Recombinant Human Fibronectin Fragment) from TaKaRa, 96 well cell culture plate flat bottom from Corning, lysis buffer from Cell Signaling Technology, and sterile PBS from Gibco. Whole Blood from by BioIVT.
SET-2 cells were cultured in RPMI media with 20% FBS at 37° C. humidified incubator supplied with 5% CO2. On the day of the assay, 40 uL per well of diluted retronectin working solution was added to sterile 96-well clear flat bottom tissue culture plates (1:200 dilution of retronectin in sterile PBS) and incubated at 37 C for 1 hour. After 1 hour, the retronectin working solution was aspirated and SET-2 cells were seeded at 100,000/well in RPMI+20% FBS. Cells were incubated overnight at 37° C. and 5% CO2. The next day, the medium was removed and 40 μL of diluted compounds in serum-free RPMI and whole blood was added to the cells for a 2 hour incubation at 37° C. and 5% CO2. The compound starting concentration is 20 μM and 2.5 fold serial diluted down to 0.21 nM. The whole blood and compound mixture was then aspirated off using the BlueCat plate washer and washed 1× with PBS. Cells were lysed by adding 40 μL of 3× complete lysis buffer and shaken at room temperature for 45-60 minutes (complete lysis buffer consists of Cell Signaling Technology lysis buffer diluted to 3× and supplemented with Mesoscale's protease inhibitor, phosphatase I inhibitor, and phosphatase II inhibitor). The pSTAT5 MSD plates were blocked by adding 150 μL of Blocker A solution per well to the MSD plates and incubated at room temperature with shaking at 400 rpm for one hour or longer. After blocking, plates were washed 3× with 300 μL/well of IX Tris Wash Buffer. After lysis, added 25 μL per well of lysed sample was added to MSD plate and incubated with shaking at 4° C. wrapped in foil overnight. The next day, plates were washed again and 25 μL/well of diluted 1× Detection Antibody Solution, wrapped in foil, and incubated at room temperature with shaking at 400 rpm for 1 hour. Plates were then washed again and lastly, 150 μL/well of 1× Read Buffer T was added to all wells. Plates were analyzed on MSD Discovery within 5 minutes. […] Data analysis was performed in GraphPad Prism using a 4-parameter fit and data was reported as Average±SD.

KIT (Homo sapiens, UniProt P10721), sequence (P10721 26-976, species assumed): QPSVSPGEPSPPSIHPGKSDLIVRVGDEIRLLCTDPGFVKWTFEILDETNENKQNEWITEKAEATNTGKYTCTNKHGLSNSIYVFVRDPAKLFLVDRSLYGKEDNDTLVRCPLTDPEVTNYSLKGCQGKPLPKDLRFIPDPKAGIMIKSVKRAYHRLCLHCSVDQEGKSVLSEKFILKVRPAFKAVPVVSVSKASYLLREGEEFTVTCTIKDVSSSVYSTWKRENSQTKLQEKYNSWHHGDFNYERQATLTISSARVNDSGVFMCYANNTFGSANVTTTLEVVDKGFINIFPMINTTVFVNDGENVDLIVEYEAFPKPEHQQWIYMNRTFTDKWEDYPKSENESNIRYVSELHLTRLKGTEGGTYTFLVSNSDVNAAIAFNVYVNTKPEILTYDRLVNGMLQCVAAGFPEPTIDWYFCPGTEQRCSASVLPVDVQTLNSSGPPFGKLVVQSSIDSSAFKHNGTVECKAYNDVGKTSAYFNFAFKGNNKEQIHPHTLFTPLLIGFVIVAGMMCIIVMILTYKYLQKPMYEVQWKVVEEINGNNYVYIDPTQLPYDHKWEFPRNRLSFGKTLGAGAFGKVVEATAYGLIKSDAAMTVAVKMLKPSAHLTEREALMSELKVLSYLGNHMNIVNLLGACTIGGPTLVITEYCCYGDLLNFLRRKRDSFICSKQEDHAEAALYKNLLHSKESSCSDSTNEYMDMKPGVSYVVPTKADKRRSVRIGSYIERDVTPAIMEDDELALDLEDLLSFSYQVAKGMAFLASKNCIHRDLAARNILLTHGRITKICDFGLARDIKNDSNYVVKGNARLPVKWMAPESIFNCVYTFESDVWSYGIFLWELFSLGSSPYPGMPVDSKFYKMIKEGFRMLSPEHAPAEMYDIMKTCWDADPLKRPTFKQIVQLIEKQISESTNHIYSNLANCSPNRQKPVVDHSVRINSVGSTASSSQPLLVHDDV

For orientation: IC50 means the concentration needed to halve the response being measured. On to `[2H]C([2H])([2H])n1cc(-c2[nH]c3ncc4c(c3c2-c2ccc3c(cnn3C(C)C)c2)n([C@@H]2CC[C@@H](NC(=O)OC)C2)c(=O)n4C)c(F)n1` [Example 16, Methyl ((1R,3R)-3-(7-(3-fluoro-1-(methyl-d3)-1H-pyrazol-4-yl)-8-(1-isopropyl-1H-indazol-5-yl)-3-methyl-2-oxo-3,6-dihydroimidazo[4,5-d]pyrrolo[2,3-b]pyridin-1(2H)-yl)cyclopentyl)carbamate], for which the IC50 is 1.25 to 2.5 µM in test [1] and at most 2.5 µM in test [3]. In test [2], the “Selectivity KIT/JH2 V617F” value is given as “****** (selectivity of >12500-fold)”.

For the compound `[2H]C([2H])([2H])n1cc(-c2[nH]c3ncc4c(c3c2-c2ccc3c(cnn3CC(F)F)c2)n([C@@H]2CC[C@@H](NC(=O)OC)C2)c(=O)n4C([2H])([2H])[2H])c(F)n1` [Example 14, Methyl ((1R,3R)-3-(8-(1-(2,2-difluoroethyl)-1H-indazol-5-yl)-7-(3-fluoro-1-(methyl-d3)-1H-pyrazol-4-yl)-3-(methyl-d3)-2-oxo-3,6-dihydroimidazo[4,5-d]pyrrolo[2,3-b]pyridin-1(2H)-yl)cyclopentyl)carbamate], the IC50 was 0.25 to 1.25 µM in test [1] and at most 2.5 µM in test [3]. Also, the “Selectivity KIT/JH2 V617F” value in test [2] is recorded as “***** (selectivity of >5000-fold to ≤12500-fold)”.

Regarding `[2H]C([2H])([2H])n1c(=O)n([C@@H]2CC[C@@H](NC(=O)OC)C2)c2c3c(-c4ccc5c(c4)COC5(C)C)c(-c4cn(C([2H])([2H])C([2H])([2H])[2H])nc4F)[nH]c3ncc21` [Example 19, Methyl ((1R,3R)-3-(8-(1,1-dimethyl-1,3-dihydroisobenzofuran-5-yl)-7-(1-(ethyl-d5)-3-fluoro-1H-pyrazol-4-yl)-3-(methyl-d3)-2-oxo-3,6-dihydroimidazo[4,5-d]pyrrolo[2,3-b]pyridin-1(2H)-yl)cyclopentyl)carbamate], the IC50 in test [1] was over 2.5 µM; in test [3] it was at most 2.5 µM. For the same compound, in test [2], the “Selectivity KIT/JH2 V617F” value is reported as “****** (selectivity of >12500-fold)”.

For the compound `[2H]C([2H])([2H])n1cc(-c2[nH]c3ncc4c(c3c2-c2ccc3c(c2)COC3(C)C)n([C@@H]2CC[C@@H](NC(=O)OC)C2)c(=O)n4C([2H])([2H])[2H])c(F)n1` [Example 8, Methyl ((1R,3R)-3-(8-(1,1-dimethyl-1,3-dihydroisobenzofuran-5-yl)-7-(3-fluoro-1-(methyl-d3)-1H-pyrazol-4-yl)-3-(methyl-d3)-2-oxo-3,6-dihydroimidazo[4,5-d]pyrrolo[2,3-b]pyridin-1(2H)-yl)cyclopentyl)carbamate], the results for the IC50 in test [1] and in test [3] were 1.25 to 2.5 µM and at most 2.5 µM, respectively. Besides, the “Selectivity KIT/JH2 V617F” value in test [2] is listed as “****** (selectivity of >12500-fold)”.
